Measurements: PubChem BioAssay AID1159562 (GlaxoSmithKline (GSK), 2015)
The source made the active and inactive calls. The rule behind the calls is not given here.

Tested on: Trypanosoma brucei growth inhibition, luminescence
Assay: antitrypanosomal activity against T. brucei – luminescence (AID 1159562);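 note: parasites grew with compound for 24 h before the luminescence read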

Compound | IC50
NC(=O)c1ccsc1NC(=O)c1ccc([N+](=O)[O-])s1 | 1.6 µM
COc1ccc2ncc(F)c(NC(=O)C3(O)CCC(NCc4ccc5c(c4)OCCO5)CC3)c2n1 (centres undefined) | 1.6 µM
Cc1ccc(NC(=O)C(C)n2nc([N+](=O)[O-])c(Br)c2C)cc1Cl (centres undefined) | > 40 µM (inactive)
Cc1cc(N(C)C)nc(Nc2ccccc2C)n1 | > 40 µM (inactive)
O=C(CN1CCN(c2ccccn2)CC1)Nc1cc(S(=O)(=O)N2CCCCCC2)ccc1Cl | 25 µM
Cc1nn(C2CCS(=O)(=O)C2)c(C)c1CN(C)C(=O)C=Cc1sc2ccccc2c1Cl (centres undefined) | 25 µM
c1cc(-c2ncc(-c3ccn[nH]3)s2)ccn1 | > 40 µM (inactive)
O=C(Cc1ccccc1)Nc1[nH]nc2sc(C(=O)NC3CCCC3)cc12 | 0.32 µM
Cc1c(C(C)NC(=O)Nc2cccc(Cl)c2)sc2ncnn12 (centres undefined) | > 40 µM (inactive)
N#Cc1cccc(Cc2cc(Nc3cc(C4CC4)[nH]n3)nc(N3CC[C@H]3C(N)=O)n2)c1 | 0.063 µM
Cc1cc(NC(=O)c2ccc([N+](=O)[O-])s2)ccc1Br | 5 µM
Cc1ccc2sc(NC(=O)Cn3cnc([N+](=O)[O-])n3)nc2c1 | > 40 µM (inactive)
O=C(c1ccc(O)c(Cl)c1)N1CCN(c2cnccn2)CC1 | > 40 µM (inactive)
N#Cc1cc(N2CCCC2=O)ccc1Sc1ccccc1CO | 32 µM
O=C1NCCn2ccc(Nc3nc(NC4CCC(O)CC4)ncc3Cl)c21 (centres undefined) | 0.63 µM
O=[N+]([O-])c1ccc(-c2nnn(-c3cccnc3)n2)o1 | 0.5 µM
N#Cc1c(Oc2cccc(Cl)c2)cccc1[N+](=O)[O-] | 0.005 µM
Cc1cc(Br)cc(C(=O)c2c(C(C)C)c(=O)[nH]c(=O)n2Cc2ccnc(N)c2)c1 | 25 µM
O=c1ccn(-c2ccc([N+](=O)[O-])cc2Cl)c2ccc(F)cc12 | > 40 µM (inactive)
Cc1c(C(=O)NCCCCn2ccnc2)oc2c(C)cccc12 | > 40 µM (inactive)
Cc1nc(-c2ccc3c(c2)OCO3)sc1C(=O)NCc1ccc2c(c1)OCO2 | > 40 µM (inactive)
O=S1N=C(NCCCN(Cc2ccc(F)cc2)c2ccccn2)C(NCc2ccncc2)=N1 (centres undefined) | 0.5 µM
CN(C)c1ccc(N)cc1CN(CC1CCCO1)S(C)(=O)=O (centres undefined) | > 40 µM (inactive)
CC(Cn1ccnc1)NC(=O)C1CC1c1cccc(Cl)c1Cl (centres undefined) | > 40 µM (inactive)

Compound | IC50
c1ccc(-c2nc(NC3CCCC3)c3ccccc3n2)nc1 | 6.3 µM
Cc1cccc(N2CCCN(Cc3c[nH]c4ccccc34)CC2)n1 | 13 µM
O=C1CCCCCC1(Cc1cnc[nH]1)c1ccc(Cl)cc1Cl (centres undefined) | > 40 µM (inactive)
Cc1ccc(Nc2nc(C3CCCN3Cc3ccn[nH]3)cs2)nc1 (centres undefined) | 4 µM
Clc1ccc(Sc2cnccc2N2CCOCC2)cc1 | > 40 µM (inactive)
Cc1cc(C)nc(N2CCC(N(Cc3cccnc3)C(=O)c3cccc(C#N)c3)CC2)n1 | > 40 µM (inactive)
COc1ccc2ncc(=O)n(CCN3CC[C@H](NCc4ncc(Cl)c5[nH]ncc45)[C@H](O)C3)c2n1 | 0.5 µM
CCN(CC)S(=O)(=O)c1ccc(Cn2nc(C(=O)Nc3ccncn3)c3ccccc32)cc1 | > 40 µM (inactive)
CC(C)N(C(=O)CN1C(=O)C(N)C(=O)N(c2ccccc2)c2ccccc21)c1ccccc1 (centres undefined) | > 40 µM (inactive)
O=C(NCC1CCCCC1)c1cnns1 | 1.3 µM
Cc1nc(N2CC(C)OC(C)C2)sc1C(=O)Nc1ccc2c(c1)OCO2 (centres undefined) | > 40 µM (inactive)
O=c1cc(NCCCNC2CCOc3c(I)cc(Cl)cc32)[nH]c2ccccc12 (centres undefined) | 0.02 µM
O=C(Cc1ccc2c(c1)CCC2)Nc1n[nH]c(-c2ccccn2)n1 | > 40 µM (inactive)
COc1ccc2nc(N(Cc3cccnc3)C(=O)C3CCC3)sc2c1 | 40 µM
COc1cc(F)c2ncc(F)c(CCN3CC[C@H](NCc4cc5c(cn4)OCS5)[C@@H](O)C3)c2c1 | 0.5 µM
O=C(Nc1cccc(Cl)c1)N1CCCCC1c1cccnc1 (centres undefined) | > 40 µM (inactive)
O=C(Nc1ccc(C(F)(F)F)cc1)NC1(C(=O)NCc2ccco2)CCCCC1 | 1 µM
Cc1[nH]n2c(=O)c3c(nc2c1-c1ccc(Br)cc1)CCCC3 | 0.79 µM
O=C(NCCc1ccn(-c2ccccc2)n1)C1CCCCC1 | 0.32 µM
Cc1nc(N2CCC(C(=O)N3CCC(O)(c4cccnc4)CC3)CC2)nc2ccc(C(C)C)cc12 | 32 µM
O=C(CN1CCC2(O)CCCCC2C1c1ccc2c(c1)OCO2)Nc1ccc(Cl)cc1Cl (centres undefined) | 7.9 µM
Cn1nccc1NC(=O)Cn1ccc(-c2ccncc2)n1 | 0.63 µM
O=C(NCCc1ccccn1)C(c1cn[nH]c1)N1CCN(c2ccc(Cl)c(Cl)c2)CC1 (centres undefined) | > 40 µM (inactive)

The remaining lines, values ahead:

IC50 | Compound
6.3 µM | N#Cc1cccc(Nc2nccc(N3CCC(NS(=O)(=O)c4cccc(C#N)c4)CC3)n2)c1
20 µM | O=C(NCC(c1cccnc1)N1CCc2ccccc2C1)C(=O)Nc1cccc(Cl)c1 (centres undefined)
32 µM | COc1ccc(-c2cnc(C)o2)cc1S(=O)(=O)Nc1ccc(C)cc1C
0.5 µM | CCOc1ccc(NC(=O)c2ccc(NC(=O)NC3CCCCC3)cc2)cc1
13 µM | N#Cc1cccc(CNc2ccc(-c3cnn(CC4CC4)c(=O)c3C#N)cc2)c1
> 40 µM (inactive) | CS(=O)(=O)c1cccc(CNC(=O)c2cncc(N3CCN(c4ccc(F)cc4)CC3)c2)c1
20 µM | COc1ccccc1C1CC(c2ccc(NS(C)(=O)=O)cc2)=NN1C(=O)c1cccs1 (centres undefined)
> 40 µM (inactive) | CN(Cc1ccc(F)cc1)c1ccc(OCC(=O)N2CCCCC2c2cccnc2)nn1 (centres undefined)
> 40 µM (inactive) | CS(=O)(=O)NC1CCC(Oc2cc3cnccc3cc2-c2ccsc2)CC1 (centres undefined)
32 µM | COc1ccc(-c2nc3ccncc3c(=O)n2CCOc2ccccc2)cc1
> 40 µM (inactive) | COc1ccc(C(=O)N2CCC(Nc3cccnc3)C2)c(OC)n1 (centres undefined)
> 40 µM (inactive) | Cc1nc(C(=O)Nc2ccc3c(c2)OCO3)nn1-c1ccc(Cl)cc1
0.5 µM | CN1C(=O)c2ccccc2Sc2ccc(NC(=O)NCc3ccco3)cc21
> 40 µM (inactive) | Cc1ccc(S(=O)(=O)Cn2nnnc2C(c2cccnc2)N2CCN(c3ccccc3)CC2)cc1 (centres undefined)
0.5 µM | CC(C)(C)CC(=O)NCCc1csc(-c2ccc(F)cc2)n1
4 µM | Cc1ccc2ccc(C(Nc3ccccn3)c3cccnc3)c(O)c2n1 (centres undefined)
7.9 µM | COc1cc(OC)cc(C(NS(=O)(=O)c2ccc(Cl)c(C(F)(F)F)c2)c2nccn2C)c1 (centres undefined)
5 µM | CS(=O)(=O)c1cccc(-c2cnc(N)c3c(-c4ccc(CO)cc4)csc23)c1
0.063 µM | Cc1ccc(NC(=O)c2ccnc(N3CCCC3)c2)cc1-c1ccsc1C(N)=O

IC50 | Compound
> 40 µM (inactive) | COc1ccc(C(C)(C)C)cc1S(=O)(=O)n1ccnc1
0.79 µM | COc1ccc(-c2csc(NC(=O)c3ccc([N+](=O)[O-])s3)n2)cc1
0.5 µM | CCOc1ccc(CC(=O)N2c3ccccc3CC2C(=O)NC)cc1 (centres undefined)
10 µM | CCNc1cc(-c2ccccn2)nc(Nc2ccc(OC)cc2)n1
3.2 µM | CCCn1c(NC(=O)Cc2ccc(Cl)cc2)nc2ccccc21
> 40 µM (inactive) | COc1ccc(C2=NCC(CSc3nnc(-c4ccc5c(c4)OCO5)o3)S2)cc1 (centres undefined)
5 µM | CCn1c(NC(=O)Cc2ccc(F)cc2)nc2ccccc21
5 µM | Cc1ccc(-c2csc(NC(=O)C=Cc3ccc(S(=O)(=O)N4CCOCC4)cc3)n2)o1
> 40 µM (inactive) | CCC(=O)Nc1ccc(-c2nc3ccc(Cl)cc3[nH]2)cc1
> 40 µM (inactive) | Cc1ccc2c(c1)SC(C(=O)Nc1n[nH]c(-c3ccccn3)n1)C2 (centres undefined)
0.63 µM | COc1ccc(S(=O)(=O)Nc2ccc(CN3CCN(C(=O)c4cccc(C#N)c4)CC3)cc2)cc1
20 µM | O=C(CN(Cc1ccccn1)Cc1ccccn1)NCc1ccc2c(c1)OCO2
0.5 µM | Cc1ccc(S(=O)(=O)Nc2ccc(CN3CCN(C(=O)c4cccc(C)c4)CC3)cc2)cc1
0.63 µM | Cc1ccccc1NS(=O)(=O)c1ccc2[nH]cc(C(=O)NC3CCCC(C)C3C)c(=O)c2c1 (centres undefined)
0.25 µM | NS(=O)(=O)c1ccc(CNC(=O)c2ccc([N+](=O)[O-])s2)cc1
> 40 µM (inactive) | Nc1nccc(-c2csc(Nc3ccc(Cl)cc3)n2)n1
32 µM | CCC1Oc2cc(S(=O)(=O)N(C)CC(=O)N3CCc4ccccc4C3)c(C)cc2NC1=O (centres undefined)
> 40 µM (inactive) | O=C(CSc1ccc(F)cc1)N[C@@H](Cc1cnc[nH]1)C(=O)NCCc1ccccc1
> 40 µM (inactive) | O=C(COc1nn(-c2ccccc2)c2ncccc12)NCc1ccccc1

IC50 | Compound
> 50 µM (inactive) | O=C1CN(C(=O)c2cccc(Nc3ncc(-c4ccc5c(c4)OCO5)cn3)c2)CCN1
0.5 µM | CCOc1ccc(N(C)S(=O)(=O)c2ccc3[nH]cc(C(=O)NC4CCCC4)c(=O)c3c2)cc1
> 40 µM (inactive) | O=C(NCCc1cccnc1)c1ccc(-c2ccccc2F)o1
25 µM | O=C(CN(c1cccc(C(F)(F)F)c1)S(=O)(=O)c1ccc(Cl)cc1)NCc1ccc(F)c(F)c1
3.2 µM | Cc1ccc(Nc2nc(-c3ccccn3)cc(N3CCCC(O)C3)n2)cc1 (centres undefined)
0.25 µM | COc1ccc(C(=O)Nc2ccc(NC(=O)CO)cc2)cc1
20 µM | Cc1ccc2nc(N(Cc3cccnc3)C(=O)CCc3ccccc3)sc2c1
0.5 µM | COc1ncc(-c2ccc3ncnc(N4CCOCC4)c3c2)cc1NS(C)(=O)=O
> 40 µM (inactive) | COc1ccc(Cl)cc1CC(=O)Nc1n[nH]c(-c2ccccn2)n1
20 µM | CC(C)COC(=O)Nc1ccc(N2CCC(CNS(=O)(=O)c3ccccc3)CC2)c(F)c1
> 40 µM (inactive) | CC1CN(Cc2ccc(C#N)cc2)CCN1c1ccc(NC(=O)c2ccccc2F)cc1 (centres undefined)
> 40 µM (inactive) | CCOc1ccccc1C(=O)Nc1nnc(-c2ccc3c(c2)OCO3)s1
6.3 µM | COc1ccc(CNc2nsc3ccccc23)cc1OC
0.5 µM | COc1ccc2nccc([C@H](O)CN3CC[C@H](NC(=O)c4ccc(Br)cc4)[C@@H](O)C3)c2n1
1 µM | Cc1ccc(C)c(CN2C(=O)NC3(CCc4ccccc43)C2=O)c1 (centres undefined)
6.3 µM | COc1ccc2ncc(=O)n(CCN3CCC(NCc4ccc(-c5cccs5)cc4)CC3)c2n1
20 µM | O=C(Nc1nc2ccccc2[nH]1)c1c(O)c2cccc3c2n(c1=O)CC3
2 µM | CCOc1ccc(CN(C)Cc2nc(N)nc(Nc3ccc(C)cc3)n2)cc1
0.79 µM | Cc1ccc(NC(=O)c2ccc([N+](=O)[O-])s2)cc1S(=O)(=O)N1CCOCC1
